Assays:
Format in all cases: cell-based
HIV-1 (NL4-3 strain) = test: CPE-based antiviral assay in HIV-1-infected MT-4 cells (XTT); settings: Human immunodeficiency virus 1, NL43, MT4, 120 h, cytopathic effect-based assay, MT-4 cells infected by HIV-1 (NL4-3 strain), 5 days post-infection
From the text: (§1) Based on a facile [2 + 2 + 2]‐cycloisomerization strategy, a robust three‐step synthetic entry into a novel family of helical extended diquats (helquats) was developed. After a straightforward Knoevenagel condensation of the respective helquat parent with different aldehydes (Fig. 2A), more than 500 helquat-based compounds were synthesized and screened for anti-HIV-1 activity in an assay based on the inhibition of the virus-induced cytopathic effect in MT-4 cells, evaluated after 5 days post-infection by an XTT assay. In parallel with the screening, the XTT assay was also used to determine the cytotoxicity of all compounds (Fig. 2B; for more information on the synthesis and characterization of the compounds, see the Supplementary Information). […]
(§2) XTT screening. MT-4 cells were seeded in 80 µl of the RPMI without Phenol Red in the amount of 3x10^4 cells per well of a 96-well plate. 10 µl of tested compounds (500 µM at 5% DMSO) or controls (5% DMSO at PBS, AZT 1mM, SQV 100 µM) were added to the cells; after one-hour incubation at 37 °C, HIV-1 (NL4-3 strain) was added with MOI = 0.05 and the infected cells were cultivated for five days.
The viability of the cells was measured by the XTT cell viability and proliferation assay. Briefly, 50 µl of the XTT solution with the addition of PMS (both VWR) was added to the cultivation media and incubated in a humidified incubator maintained at 37 °C with 5% CO2 for four hours, after which absorbance at 560 nm was measured on a VICTOR plate reader (PerkinElmer). […]
(§3) For compounds selected as hits in the initial screening, the effective concentration that inhibits 50% of the viral activity (EC50) and the cytotoxic concentration that reduces the MT -4 cell viability by 50% (CC50) were determined. Viral activity was evaluated after five days as an HIV-1-induced cytopathic effect quantified by the XTT assay. Selected hits were tested at two-fold serial dilutions from 50 µM concentration, and the drug concentrations required to reduce the viral cytopathic effect by 50% (EC 50) as well as the drug concentrations that reduced MT-4 cell viability by 50% (CC50) were calculated by nonlinear regression using GraphPad Prism v.8.0.0 (GraphPad Software).

HIV-1 = test: Adsorption assay (RT activity in supernatant); settings: 10 µM, compound and virions added to MT-4 cells simultaneously, washed out after 2 h, RT activity 5 days after infection
Method: To address virion binding and entry in a competitive setting, we performed an adsorption assay where test compounds and virions were added to MT-4 cells simultaneously and were washed out after 2 h of incubation. In parallel, we performed a replication assay where MT-4 cells were infected with HIV-1 and the tested compounds were added 1 h later. In both cases, the infection was evaluated by measuring reverse transcriptase activity in a cell-free supernatant 5 days after the infection (Fig. 3). As controls, PBS (phosphate-buffered saline) and inhibitors of different HIV-1 life-cycle steps were used: AMD (AMD3100), an inhibitor of gp120 attachment to CXCR4 receptors of the target cell, thus preventing HIV-1 adsorption and entry; AZT (azidothymidine), an inhibitor of reverse transcriptase; and RAL (raltegravir), an integrase inhibitor.
MT-4 cells were seeded in 80 µl of the Roswell Park Memorial Institute (RPMI) medium in the amount of 2 × 10^5 cells per well of a 96-well plate, and 10 µl of the virus stock were immediately added with the final multiplicity of infection (MOI) of 0.05. For a replication assay, the infected cells were incubated at 37 °C for 1 h before the addition of compounds being tested (10 µM final concentration) and subsequently cultivated at 37 °C for another 5 days. For an adsorption test, by contrast, the compounds (10 µM final concentration) were added simultaneously with the virus, and after 2 h of incubation, the cells were washed three times with PBS to remove the compounds and unbound virions; after the addition of 100 µl of the RPMI medium, the cells were cultivated at 37 °C for 5 days. Five days post-infection, aliquots of virus-containing cell-free supernatants were harvested and analysed by reverse transcriptase (RT) assay (described in the Supplementary Information). The experiments were performed as biological replicates where the sample size for each condition was n = 3.
RT assay. The reverse transcriptase (RT) activity in a cell-free supernatant was assessed by an α-32P RT assay. Briefly, the RT activity in the culture medium, which corresponded to the amount of HIV-1, was used to produce a DNA copy of an RNA template by extending a complementary oligo dT DNA primer with radiolabelled nucleotides. A reaction mixture containing 50 mM Tris-HCl pH 7.8, 75 mM KCl, 2 mM DTT, 5 mM MgCl2 and 0.5% NP-40 (all Sigma-Aldrich), 5 µg per ml of poly (rA)-poly (dT) (The Midlan Certified Reagent Company) with 1 µl 10-mCi/ml [α-32P]dTTP (American Radiolabeled Chemicals) per ml, and the tested sample was incubated at 37°C for two hours, after which 10 µl were spotted on DEAE blotting paper (PerkinElmer) and air-dried. After five washes with SSC buffer (0.15 M NaCl, 0.015 M sodium citrate) and three additional washes with 85% ethanol, the blotting paper was exposed to Phosphoscreen overnight, which was scanned on a Typhoon 9410 Phosphorimager instrument (GE Healthcare). The intensity of the dots was analysed by the ImageQuant software (GE Healthcare).

in vitro = settings: human
From the text: as §1, §2
The viability of the cells was measured by the XTT cell viability and proliferation assay. Briefly, 50 µl of the XTT solution with the addition of PMS (both VWR) was added to the cultivation media and incubated in a humidified incubator maintained at 37 °C with 5% CO2 for four hours, after which absorbance at 560 nm was measured on a VICTOR plate reader (PerkinElmer).
The cytotoxicity of the tested compounds was evaluated separately without virus addition and analysed by the same assay.
as §3

| SMILES | EC50 (HIV-1 (NL4-3 strain)) [µM] | effect on virus adsorption (HIV-1) | CC50 at 5 days (in vitro) [µM] |
| --- | --- | --- | --- |
| Cn1cc(/C=C/c2cc(/C=C/c3cn(C)c4ccccc34)[n+]3c(c2)-c2c(ccc4c2-c2cccc[n+]2CCC4)CCC3)c2ccccc21 [Compound 12] | 2.68 | minimal or no effect on virus adsorption | > 50 |
| C(=C\c1cc(/C=C/c2ccc3c(c2)CCO3)[n+]2c(c1)-c1c(ccc3c1-c1cccc[n+]1CCC3)CCC2)/c1ccc2c(c1)CCO2 [Compound 14] | 2.7 | minimal or no effect on virus adsorption | > 50 |
| COc1ccc2ccccc2c1/C=C/c1cc[n+]2c(c1)-c1c(c(C)c(C)c3c1-c1cc(/C=C/c4c(OC)ccc5ccccc45)cc[n+]1CC3)CC2 [Compound 15] | 2.74 | minimal or no effect on virus adsorption | > 50 |

— paper PMC10102027, “Helquat dyes targeting G-quadruplexes as a new class of anti-HIV-1 inhibitors” (Scientific Reports, 2023)
